Measured values as given in ChEMBL document CHEMBL5252562, “Synthesis, evaluation of anti-breast cancer activity in vitro of ICS II derivatives and summary of the structure-activity relationship” (Bioorg Med Chem, 2023).

Legend:
[1] = Cytotoxicity against African green monkey Vero cells; format: toxicity, cell-based; details: African green monkey (Chlorocebus sabaeus)
MCF7 [2] = test: Antitumor activity against human MCF7 cells assessed as cell viability at 20 uM incubated for 48 hrs by CCK8 assay; format: functional; details: read-out: Activity
[3] = Selectivity index, ratio of IC50 for cytotoxicity against African green monkey Vero cells to IC50 for antitumor activity against human MCF7 cells; format: toxicity, cell-based; details: Vero cells and MCF7 cells, read-out: Ratio IC50
MCF7 [4] = test: Antitumor activity against human MCF7 cells assessed as cell viability incubated for 48 hrs by CCK8 assay; format: functional, cell-based; details: MCF7, 48 h
MCF7 [5] = test: Potency index, ratio of Icariside-II IC50 to test compound IC50 for antitumor activity against human MCF7 cells; format: functional

Row | Structure (SMILES) | IC50 [1] | viability at 20 µM (MCF7 [2]) | selectivity ratio [3] | IC50 (MCF7 [4]) | Ratio IC50 (MCF7 [5])
1 | COc1ccc(-c2oc3c(CC=C(C)C)c(OCC=C(C)C)cc(O)c3c(=O)c2O[C@@H]2O[C@@H](C)[C@H](O)[C@@H](O)[C@H]2O)cc1 | 6.74 µM | < 50% | 2.85 | 2.17 µM | –
2 | COc1ccc(-c2oc3c(CC=C(C)C)c(OCCO)cc(O)c3c(=O)c2O[C@@H]2O[C@@H](C)[C@H](O)[C@@H](O)[C@H]2O)cc1 | – | < 50% | – | 10.2 µM | –
3 | C#CCOc1cc(OCC#C)c2c(=O)c(O[C@@H]3O[C@@H](C)[C@H](O)[C@@H](O)[C@H]3O)c(-c3ccc(OC)cc3)oc2c1CC=C(C)C | – | < 50% | – | 6.24 µM | –
4 | COc1ccc(-c2oc3c(CC=C(C)C)c(O)c(CN4CCCC4)c(O)c3c(=O)c2O[C@@H]2O[C@@H](C)[C@H](O)[C@@H](O)[C@H]2O)cc1 | – | – | – | > 20 µM | –
5 | COc1ccc(-c2oc3c(CC=C(C)C)c(OC(C)=O)cc(OC(C)=O)c3c(=O)c2O[C@@H]2O[C@@H](C)[C@H](OC(C)=O)[C@@H](OC(C)=O)[C@H]2OC(C)=O)cc1 | 3.13 µM | < 50% | 4.47 | 0.7 µM | 5
6 | C=CCOc1cc(O)c2c(=O)c(O[C@@H]3O[C@@H](C)[C@H](O)[C@@H](O)[C@H]3O)c(-c3ccc(OC)cc3)oc2c1CC=C(C)C | 5.88 µM | < 50% | 2.03 | 2.89 µM | –
7 | COc1ccc(-c2oc3c(CC=C(C)C)c(O)c(CN(C(C)C)C(C)C)c(O)c3c(=O)c2O[C@@H]2O[C@@H](C)[C@H](O)[C@@H](O)[C@H]2O)cc1 | – | – | – | > 20 µM | –
8 | COc1ccc(-c2oc3c(CC=C(C)C)c(O)c(CN4CCCCC4)c(O)c3c(=O)c2O[C@@H]2O[C@@H](C)[C@H](O)[C@@H](O)[C@H]2O)cc1 | – | – | – | > 20 µM | –
9 | COc1ccc(-c2oc3c(CC=C(C)C)c(OCCCN4CCNCC4)cc(O)c3c(=O)c2O[C@@H]2O[C@@H](C)[C@H](O)[C@@H](O)[C@H]2O)cc1 | > 20 µM | < 50% | > 5 | 4.07 µM | –
10 | COc1ccc(-c2oc3c(CC=C(C)C)c(OCCCBr)cc(O)c3c(=O)c2O[C@@H]2O[C@@H](C)[C@H](O)[C@@H](O)[C@H]2O)cc1 | – | < 50% | – | 13.4 µM | –
11 | C=C(C)COc1c(CN2CCC(C)CC2)c(O)c2c(=O)c(O[C@@H]3O[C@@H](C)[C@H](O)[C@@H](O)[C@H]3O)c(-c3ccc(OC)cc3)oc2c1CC=C(C)C | – | – | – | > 20 µM | –
12 | COc1ccc(-c2oc3c(CC=C(C)C)c(OCC4OCCO4)cc(O)c3c(=O)c2O[C@@H]2O[C@@H](C)[C@H](O)[C@@H](O)[C@H]2O)cc1 | – | < 50% | – | 6.28 µM | –
13 | CCN(CC)Cc1c(O)c(CC=C(C)C)c2oc(-c3ccc(OC)cc3)c(O[C@@H]3O[C@@H](C)[C@H](O)[C@@H](O)[C@H]3O)c(=O)c2c1O | – | – | – | > 20 µM | –
14 | COc1ccc(-c2oc3c(CC=C(C)C)c(OCCCN4CCC(C)CC4)cc(O)c3c(=O)c2O[C@@H]2O[C@@H](C)[C@H](O)[C@@H](O)[C@H]2O)cc1 | 10.3 µM | < 50% | 3.24 | 3.17 µM | –
15 | CCOc1cc(O)c2c(=O)c(O[C@@H]3O[C@@H](C)[C@H](O)[C@@H](O)[C@H]3O)c(-c3ccc(OC)cc3)oc2c1CC=C(C)C | – | < 50% | – | 8.25 µM | –
16 | COc1ccc(-c2oc3c(CC=C(C)C)c(O)c(CN4CCN(C)CC4)c(O)c3c(=O)c2O[C@@H]2O[C@@H](C)[C@H](O)[C@@H](O)[C@H]2O)cc1 | – | – | – | > 20 µM | –
17 | COc1ccc(-c2oc3c(CC=C(C)C)c(OCCCCCCCCCO)cc(O)c3c(=O)c2O[C@@H]2O[C@@H](C)[C@H](O)[C@@H](O)[C@H]2O)cc1 | – | < 50% | – | 10.2 µM | –
18 | C#CCOc1cc(O)c2c(=O)c(O[C@@H]3O[C@@H](C)[C@H](O)[C@@H](O)[C@H]3O)c(-c3ccc(OC)cc3)oc2c1CC=C(C)C | 6.43 µM | < 50% | 2.3 | 2.79 µM | –
19 | COc1ccc(-c2oc3c(CC=C(C)C)c(OCc4ccc([N+](=O)[O-])cc4)cc(O)c3c(=O)c2O[C@@H]2O[C@@H](C)[C@H](O)[C@@H](O)[C@H]2O)cc1 | – | – | – | > 20 µM | –
20 | COc1ccc(-c2oc3c(CC=C(C)C)c(OCCCN4CCCCC4)cc(O)c3c(=O)c2O[C@@H]2O[C@@H](C)[C@H](O)[C@@H](O)[C@H]2O)cc1 | 15.5 µM | < 50% | 4.08 | 3.79 µM | –
21 | C=C(C)COc1cc(O)c2c(=O)c(O[C@@H]3O[C@@H](C)[C@H](O)[C@@H](O)[C@H]3O)c(-c3ccc(OC)cc3)oc2c1CC=C(C)C | 8.18 µM | < 50% | 2.06 | 3.97 µM | –
22 | COc1ccc(-c2oc3c(CC=C(C)C)c(O)c(CN4CCNCC4)c(O)c3c(=O)c2O[C@@H]2O[C@@H](C)[C@H](O)[C@@H](O)[C@H]2O)cc1 | – | – | – | > 20 µM | –
23 | CCN(CC)CCCOc1cc(O)c2c(=O)c(O[C@@H]3O[C@@H](C)[C@H](O)[C@@H](O)[C@H]3O)c(-c3ccc(OC)cc3)oc2c1CC=C(C)C | 6.19 µM | < 50% | 1.89 | 3.26 µM | –
24 | COc1ccc(-c2oc3c(CC=C(C)C)c(OCCCN4CCCC4)cc(O)c3c(=O)c2O[C@@H]2O[C@@H](C)[C@H](O)[C@@H](O)[C@H]2O)cc1 | 6.15 µM | < 50% | 1.99 | 3.09 µM | –
25 | COc1ccc(-c2oc3c(CC=C(C)C)c(O)c(CN4CCC(C)CC4)c(O)c3c(=O)c2O[C@@H]2O[C@@H](C)[C@H](O)[C@@H](O)[C@H]2O)cc1 | – | – | – | 17.4 µM | –
26 | COc1ccc(-c2oc3c(CC=C(C)C)c(OC(=O)N(C)C)cc(O)c3c(=O)c2O[C@@H]2O[C@@H](C)[C@H](O)[C@@H](O)[C@H]2O)cc1 | – | – | – | > 20 µM | –
27 | COc1ccc(-c2oc3c(CC=C(C)C)c(OC(C)=O)cc(O)c3c(=O)c2O[C@@H]2O[C@@H](C)[C@H](OC(C)=O)[C@@H](OC(C)=O)[C@H]2OC(C)=O)cc1 | 3.88 µM | < 50% | 2.51 | 1.54 µM | –
28 | COc1ccc(-c2oc3c(CC=C(C)C)c(O)cc(O)c3c(=O)c2O[C@@H]2O[C@@H](C)[C@H](O)[C@@H](O)[C@H]2O)cc1 | 9.34 µM | – | 1.24 | 7.52 µM | –
29 | CC(=O)O[C@H]1C(=O)[C@@]2(C)[C@H]([C@H](OC(=O)c3ccccc3)[C@]3(O)C[C@H](OC(=O)[C@H](O)[C@@H](NC(=O)c4ccccc4)c4ccccc4)C(C)=C1C3(C)C)[C@]1(OC(C)=O)CO[C@@H]1C[C@@H]2O [PACLITAXEL] | – | – | – | 0.48 µM | –
